One assay concerns HCV 1b-377-neo replicon cells. Kind of assay: HCV replicon assay, HCV 1b-377-neo replicon cells (1b FRET). As to conditions: HCV 1b-377-neo replicon cells; HCV 1b genotype; read-out: EC50 range against HCV 1b (Table 2, Range). The assay is classed as cell-based, Hepatitis C virus genotype 1b. The procedure, abridged: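 Compounds were tested in genotype 1b subgenomic replicon cells carrying a neomycin marker, alongside a matched replicon line with an NS5A Y2065H substitution that confers resistance to a reference NS5A inhibitor.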
`COC(=O)N[C@@H](C(=O)N1CCC[C@H]1c1ncc(-c2ccc(-c3ccc(-c4cnc([C@@H]5CCCN5C(=O)Cc5ccccn5)[nH]4)cc3)cc2)[nH]1)c1ccccc1` [Example 46, methyl ((1R)-2-oxo-1-phenyl-2-((2S)-2-(5-(4′-(2-((2S)-1-(2-pyridinylacetyl)-2-pyrrolidinyl)-1H-imidazol-5-yl)-4-biphenylyl)-1H-imidazol-2-yl)-1-pyrrolidinyl)ethyl)carbamate]: the EC50 is 0.001 to 0.999 nM. Still for that read-out and setting: for `COC(=O)N[C@@H](C(=O)N1CCC[C@H]1c1ncc(-c2ccc(-c3ccc(-c4cnc([C@@H]5CCCN5C(=O)[C@@H]5CCCN5C)[nH]4)cc3)cc2)[nH]1)c1ccccc1` [Example 52, methyl ((1R)-2-((2S)-2-(5-(4′-(2-((2S)-1-(1-methyl-L-propyl)-2-pyrrolidinyl)-1H-imidazol-5-yl)-4-biphenylyl)-1H-imidazol-2-yl)-1-pyrrolidinyl)-2-oxo-1-phenylethyl)carbamate] the value was 0.001 to 0.999 nM; for `COC(=O)N[C@@H](C(=O)N1CCC[C@H]1c1ncc(-c2ccc(-c3ccc(-c4cnc([C@@H]5CCCN5C(=O)[C@H](C)NC(C)=O)[nH]4)cc3)cc2)[nH]1)c1ccccc1` [Example 54, methyl ((1R)-2-((2S)-2-(5-(4′-(2-((2S)-1-(N-acetyl-L-ananyl)-2-pyrrolidinyl)-1H-imidazol-5-yl)-4-biphenylyl)-1H-imidazol-2-yl)-1-pyrrolidinyl)-2-oxo-1-phenylethyl)carbamate], 0.001 to 0.999 nM.

Still in this assay, the particulars now being: Hepatitis C virus, HCV 1b-377-neo replicon cells; HCV 1b genotype; read-out: EC50 range against HCV 1b (Table 2, Range).
For `COC(=O)N[C@@H](C(=O)N1CCC[C@H]1c1ncc(-c2ccc(-c3ccc(-c4cnc([C@@H]5CCCN5C(=O)[C@H](c5ccccc5)N(C)C)[nH]4)cc3)cc2)[nH]1)c1ccccc1` [Example 38, methyl ((1R)-2-((2S)-2-(5-(4′-(2-((2S)-1-((2S)-2-(dimethylamino)-2-phenylacetyl)-2-pyrrolidinyl)-1H-imidazol-5-yl)-4-biphenylyl)-1H-imidazol-2-yl)-1-pyrrolidinyl)-2-oxo-1-phenylethyl)carbamate], the EC50 lay in the range of 0.001 to 0.999 nM. Same read-out and setting: for `COC(=O)N[C@@H](C(=O)N1CCC[C@H]1c1ncc(-c2ccc(-c3ccc(-c4cnc([C@@H]5CCCN5C(=O)CN5CCOCC5)[nH]4)cc3)cc2)[nH]1)c1ccccc1` [Example 39, methyl ((1R)-2-((2S)-2-(5-(4′-(2-((2S)-1-(4-morpholinylacetyl)-2-pyrrolidinyl)-1H-imidazol-5-yl)-4-biphenylyl)-1H-imidazol-2-yl)-1-pyrrolidinyl)-2-oxo-1-phenylethyl)carbamate] the value was 0.001 to 0.999 nM; for `COC(=O)NCC(=O)N1CCC[C@H]1c1ncc(-c2ccc(-c3ccc(-c4cnc([C@@H]5CCCN5C(=O)[C@H](NC(=O)OC)c5ccccc5)[nH]4)cc3)cc2)[nH]1` [Example 40, methyl (2-((2S)-2-(5-(4′-(2-((2S)-1-((2R)-2-((methoxycarbonyl)amino)-2-phenylacetyl)-2-pyrrolidinyl)-1H-imidazol-5-yl)-4-biphenylyl)-1H-imidazol-2-yl)-1-pyrrolidinyl)-2-oxoethyl)carbamate], 0.001 to 0.999 nM. Same read-out and setting: for `COC(=O)N[C@@H](C(=O)N1CCC[C@H]1c1ncc(-c2ccc(-c3ccc(-c4cnc([C@@H]5CCCN5C(=O)CNC(C)=O)[nH]4)cc3)cc2)[nH]1)c1ccccc1` [Example 41, methyl ((1R)-2-((2S)-2-(5-(4′-(2-((2S)-1-(N-acetylglycyl)-2-pyrrolidinyl)-1H-imidazol-5-yl)-4-biphenylyl)-1H-imidazol-2-yl)-1-pyrrolidinyl)-2-oxo-1-phenylethyl)carbamate] the value was 0.001 to 0.999 nM. In the case of `COC(=O)N[C@@H](C(=O)N1CCC[C@H]1c1ncc(-c2ccc(-c3ccc(-c4cnc([C@@H]5CCCN5C(=O)[C@@H](c5ccccc5)N(C)C)[nH]4)cc3)cc2)[nH]1)c1ccccc1` [Example 42, methyl ((1R)-2-((2S)-2-(5-(4′-(2-((2S)-1-((2R)-2-(dimethylamino)-2-phenylacetyl)-2-pyrrolidinyl)-1H-imidazol-5-yl)-4-biphenylyl)-1H-imidazol-2-yl)-1-pyrrolidinyl)-2-oxo-1-phenylethyl)carbamate], the EC50 was in the range of 0.001 to 0.999 nM. As for `COC(=O)N[C@@H](C(=O)N1CCC[C@H]1c1ncc(-c2ccc(-c3ccc(-c4cnc([C@@H]5CCCN5C(=O)[C@H](O)c5ccccc5)[nH]4)cc3)cc2)[nH]1)c1ccccc1` [Example 43, methyl ((1R)-2-((2S)-2-(5-(4′-(2-((2S)-1-((2R)-2-hydroxy-2-phenylacetyl)-2-pyrrolidinyl)-1H-imidazol-5-yl)-4-biphenylyl)-1H-imidazol-2-yl)-1-pyrrolidinyl)-2-oxo-1-phenylethyl)carbamate], the concentration for a half-maximal effect (EC50) lay in the range of 0.001 to 0.999 nM.

As to `COC(=O)N[C@@H](C(=O)N1CCC[C@H]1c1ncc(-c2ccc(-c3ccc(-c4cnc([C@@H]5CCCN5C(=O)C5CCN(C)CC5)[nH]4)cc3)cc2)[nH]1)c1ccccc1` [Example 44, methyl ((1R)-2-((2S)-2-(5-(4′-(2-((2S)-1-((1-methyl-4-piperidinyl)carbonyl)-2-pyrrolidinyl)-1H-imidazol-5-yl)-4-biphenylyl)-1H-imidazol-2-yl)-1-pyrrolidinyl)-2-oxo-1-phenylethyl)carbamate], the EC50 lay in the range of 0.001 to 0.999 nM. Take `COC(=O)N[C@@H](C(=O)N1CCC[C@H]1c1ncc(-c2ccc(-c3ccc(-c4cnc([C@@H]5CCCN5C(=O)C5CCOCC5)[nH]4)cc3)cc2)[nH]1)c1ccccc1` [Example 45, methyl ((1R)-2-oxo-1-phenyl-2-((2S)-2-(5-(4′-(2-((2S)-1-(tetrahydro-2H-pyran-4-ylcarbonyl)-2-pyrrolidinyl)-1H-imidazol-5-yl)-4-biphenylyl)-1H-imidazol-2-yl)-1-pyrrolidinyl)ethyl)carbamate]: the EC50 fell in the range of 0.001 to 0.999 nM.

`COC(=O)N[C@@H](C(=O)N1CCC[C@H]1c1ncc(-c2ccc(-c3ccc(-c4cnc([C@@H]5CCCN5C(=O)Cc5cccnc5)[nH]4)cc3)cc2)[nH]1)c1ccccc1` [Example 47, methyl ((1R)-2-oxo-1-phenyl-2-((2S)-2-(5-(4′-(2-((2S)-1-(3-pyridinylacetyl)-2-pyrrolidinyl)-1H-imidazol-5-yl)-4-biphenylyl)-1H-imidazol-2-yl)-1-pyrrolidinyl)ethyl)carbamate]: the EC50 was in the range of 0.001 to 0.999 nM. On the same count and under the same terms, for `COC(=O)N[C@@H](C(=O)N1CCC[C@H]1c1ncc(-c2ccc(-c3ccc(-c4cnc([C@@H]5CCCN5C(=O)Cc5ccncc5)[nH]4)cc3)cc2)[nH]1)c1ccccc1` [Example 48, methyl ((1R)-2-oxo-1-phenyl-2-((2S)-2-(5-(4′-(2-((2S)-1-(4-pyridinylacetyl)-2-pyrrolidinyl)-1H-imidazol-5-yl)-4-biphenylyl)-1H-imidazol-2-yl)-1-pyrrolidinyl)ethyl)carbamate] the value was 0.001 to 0.999 nM; for `COC(=O)N[C@@H](C(=O)N1CCC[C@H]1c1ncc(-c2ccc(-c3ccc(-c4cnc([C@@H]5CCCN5C(=O)c5cncn5C)[nH]4)cc3)cc2)[nH]1)c1ccccc1` [Example 49, methyl ((1R)-2-((2S)-2-(5-(4′-(2-((2S)-1-((1-methyl-1H-imidazol-5-yl)carbonyl)-2-pyrrolidinyl)-1H-imidazol-5-yl)-4-biphenylyl)-1H-imidazol-2-yl)-1-pyrrolidinyl)-2-oxo-1-phenylethyl)carbamate], 0.001 to 0.999 nM; for `COC(=O)N[C@@H](C(=O)N1CCC[C@H]1c1ncc(-c2ccc(-c3ccc(-c4cnc([C@@H]5CCCN5C(=O)N(C)C)[nH]4)cc3)cc2)[nH]1)c1ccccc1` [Example 50, methyl ((1R)-2-((2S)-2-(5-(4′-(2-((2S)-1-(dimethylcarbamoyl)-2-pyrrolidinyl)-1H-imidazol-5-yl)-4-biphenylyl)-1H-imidazol-2-yl)-1-pyrrolidinyl)-2-oxo-1-phenylethyl)carbamate], 100 to 999 nM. For `COC(=O)N[C@@H](C(=O)N1CCC[C@H]1c1ncc(-c2ccc(-c3ccc(-c4cnc([C@@H]5CCCN5C(=O)[C@H]5CCCN5C)[nH]4)cc3)cc2)[nH]1)c1ccccc1` [Example 51, methyl ((1R)-2-((2S)-2-(5-(4′-(2-((2S)-1-(1-methyl-D-prolyl)-2-pyrrolidinyl)-1H-imidazol-5-yl)-4-biphenylyl)-1H-imidazol-2-yl)-1-pyrrolidinyl)-2-oxo-1-phenylethyl)carbamate], the EC50 fell in the range of 0.001 to 0.999 nM. Regarding `COC(=O)N[C@@H](C(=O)N1CCC[C@H]1c1ncc(-c2ccc(-c3ccc(-c4cnc([C@@H]5CCCN5C(=O)[C@@H](C)NC(C)=O)[nH]4)cc3)cc2)[nH]1)c1ccccc1` [Example 53, methyl ((1R)-2-((2S)-2-(5-(4′-(2-((2S)-1-(N-acetyl-D-alanyl)-2-pyrrolidinyl)-1H-imidazol-5-yl)-4-biphenylyl)-1H-imidazol-2-yl)-1-pyrrolidinyl)-2-oxo-1-phenylethyl)carbamate], the concentration giving a half-maximal response (EC50) lay within 0.001 to 0.999 nM. As to `COCC(=O)N1CCC[C@H]1c1ncc(-c2ccc(-c3ccc(-c4cnc([C@@H]5CCCN5C(=O)[C@H](NC(=O)OC)c5ccccc5)[nH]4)cc3)cc2)[nH]1` [Example 55, methyl ((1R)-2-((2S)-2-(5-(4′-(2-((2S)-1-(methoxyacetyl)-2-pyrrolidinyl)-1H-imidazol-5-yl)-4-biphenylyl)-1H-imidazol-2-yl)-1-pyrrolidinyl)-2-oxo-1-phenylethyl)carbamate], the concentration for a half-maximal effect (EC50) was 0.001 to 0.999 nM. On to `CC[C@@H](O)C(=O)N1CCC[C@H]1c1ncc(-c2ccc(-c3ccc(-c4cnc([C@@H]5CCCN5C(=O)[C@H](NC(=O)OC)c5ccccc5)[nH]4)cc3)cc2)[nH]1` [Example 56, methyl ((1R)-2-((2S)-2-(5-(4′-(2-((2S)-1-((2R)-2-hydroxybutanoyl)-2-pyrrolidinyl)-1H-imidazol-5-yl)-4-biphenylyl)-1H-imidazol-2-yl)-1-pyrrolidinyl)-2-oxo-1-phenylethyl)carbamate], for which the concentration for a half-maximal effect (EC50) fell in the range of 0.001 to 0.999 nM.

Source of the values: patent US8574563B2 (Bristol-Myers Squibb Company, priority 2006, dated 2013).
